Source: patent publication US11564394B2, “Distorted gold (I)-phosphine complexes and methods for use as antifungal agents” (University of Kentucky Research Foundation, priority 2019, dated 2023)
Like-named read-outs stand apart in the source and are kept apart here.

What was measured:
Experiment in all cases: MIC determination (broth microdilution)
Assay type in all cases: cell-based, Candida auris
Settings in all cases: Candidozyma auris
[1] = test system: C. auris AR Bank # 0381 (strain I)
[2] = test system: C. auris AR Bank # 0388 (strain VII)
[3] = test system: C. auris AR Bank # 0389 (strain VIII)
[4] = test system: C. auris AR Bank # 0382 (strain II)
[5] = test system: C. auris AR Bank # 0387 (strain VI)
[6] = test system: C. auris AR Bank # 0384 (strain K)
[7] = test system: C. auris AR Bank # 0386 (strain V)
[8] = test system: C. auris AR Bank # 0383 (strain III)
[9] = test system: C. auris AR Bank # 0390 (strain L)
[10] = test system: C. auris AR Bank # 0385 (strain IV)
[11] = strain I = C. auris AR Bank # 0381, MIC-2, optical density at 600 nm, read-out: MIC (MIC-2 for azoles)
[12] = strain I = C. auris AR Bank # 0381, MIC-2, optical density at 600 nm, read-out: MIC (MIC-2 for azoles, in parentheses)
[13] = strain VII = C. auris AR Bank # 0388, MIC-2, read-out: MIC (MIC-2 for azoles)
[14] = strain VII = C. auris AR Bank # 0388, MIC-2, read-out: MIC (MIC-2 for azoles, in parentheses)
[15] = strain VIII = C. auris AR Bank # 0389, MIC-2, read-out: MIC (MIC-2 for azoles)
[16] = strain VIII = C. auris AR Bank # 0389, MIC-2, read-out: MIC (MIC-2 for azoles, in parentheses)
[17] = strain II = C. auris AR Bank # 0382, MIC-2, read-out: MIC (MIC-2 for azoles)
[18] = strain II = C. auris AR Bank # 0382, MIC-2, read-out: MIC (MIC-2 for azoles, in parentheses)
[19] = strain VI = C. auris AR Bank # 0387, MIC-2, read-out: MIC (MIC-2 for azoles)
[20] = strain VI = C. auris AR Bank # 0387, MIC-2, read-out: MIC (MIC-2 for azoles, in parentheses)
[21] = strain K = C. auris AR Bank # 0384, MIC-2, read-out: MIC (MIC-2 for azoles)
[22] = strain K = C. auris AR Bank # 0384, MIC-2, read-out: MIC (MIC-2 for azoles, in parentheses)
[23] = strain V = C. auris AR Bank # 0386, MIC-2, read-out: MIC (MIC-2 for azoles)
[24] = strain V = C. auris AR Bank # 0386, MIC-2, read-out: MIC (MIC-2 for azoles, in parentheses)
[25] = strain L = C. auris AR Bank # 0390, MIC-2, read-out: MIC (MIC-2 for azoles)
[26] = strain L = C. auris AR Bank # 0390, MIC-2, read-out: MIC (MIC-2 for azoles, in parentheses)
[27] = strain IV = C. auris AR Bank # 0385, MIC-2, read-out: MIC (MIC-2 for azoles)
[28] = strain IV = C. auris AR Bank # 0385, MIC-2, read-out: MIC (MIC-2 for azoles, in parentheses)

Structure (SMILES)	MIC [1, 11] [µg/mL]	MIC [1, 12] [µM]	MIC [2, 13] [µg/mL]	MIC [2, 14] [µM]	MIC [3, 15] [µg/mL]	MIC [3, 16] [µM]	MIC [4, 17] [µg/mL]	MIC [4, 18] [µM]	MIC [5, 19] [µg/mL]	MIC [5, 20] [µM]	MIC [6, 21] [µg/mL]	MIC [6, 22] [µM]	MIC [7, 23] [µg/mL]	MIC [7, 24] [µM]	MIC [9, 25] [µg/mL]	MIC [9, 26] [µM]	MIC [10, 27] [µg/mL]	MIC [10, 28] [µM]	other results
CC[C@H](C)C[C@H](C)CCCCCCCCC(=O)N[C@H]1C[C@@H](O)[C@@H](NCCN)NC(=O)[C@@H]2[C@@H](O)CCN2C(=O)[C@H]([C@H](O)CCN)NC(=O)[C@H]([C@H](O)[C@@H](O)c2ccc(O)cc2)NC(=O)[C@@H]2C[C@@H](O)CN2C(=O)[C@H]([C@@H](C)O)NC1=O [CAS, caspofungin]																			MIC [1]: < 0.98 µg/mL; MIC ([1]; read-out: MIC (in parentheses)): < 0.9 µM; MIC [2]: 31.3 µg/mL; MIC ([2]; read-out: MIC (in parentheses)): 28.6 µM; MIC [3]: 7.8 µg/mL; MIC ([3]; read-out: MIC (in parentheses)): 7.1 µM; MIC [4]: < 0.98 µg/mL; MIC ([4]; read-out: MIC (in parentheses)): < 0.9 µM; MIC [5]: 31.3 µg/mL; MIC ([5]; read-out: MIC (in parentheses)): 28.6 µM; MIC [6]: 1.95 µg/mL; MIC ([6]; read-out: MIC (in parentheses)): 1.8 µM; MIC [7]: 7.8 µg/mL; MIC ([7]; read-out: MIC (in parentheses)): 7.1 µM; MIC [8]: 1.95 µg/mL; MIC ([8]; read-out: MIC (in parentheses)): 1.8 µM; MIC [9]: 7.8 µg/mL; MIC ([9]; read-out: MIC (in parentheses)): 7.1 µM; MIC [10]: < 0.98 µg/mL; MIC ([10]; read-out: MIC (in parentheses)): < 0.9 µM
OC(Cn1cncn1)(Cn1cncn1)c1ccc(F)cc1F [FLC, fluconazole]	0.49	1.6	> 62.5	> 204	> 62.5	> 204	0.49	1.6	0.98	3.2	31.3	102	> 62.5	> 204	> 62.5	> 204	> 62.5	> 204	
C[C@@H](c1ncncc1F)[C@](O)(Cn1cncn1)c1ccc(F)cc1F [VRC, voriconazole]	0.06	0.2	0.49	1.4	0.98	2.8	0.06	0.2	0.06	0.2	0.24	0.7	3.9	11.2	0.49	1.4	3.9	11.2	MIC ([8]; strain III = C. auris AR Bank # 0383, MIC-2, read-out: MIC (MIC-2 for azoles)): 1.95 µg/mL; MIC ([8]; strain III = C. auris AR Bank # 0383, MIC-2, read-out: MIC (MIC-2 for azoles, in parentheses)): 5.6 µM
